{"source": "paper PMC6768323", "about": "“Adverse Maternal, Fetal, and Postnatal Effects of Hexafluoropropylene Oxide Dimer Acid (GenX) from Oral Gestational Exposure in Sprague-Dawley Rats” (Environmental Health Perspectives, 2019)", "key": {"[1]": {"tested_on": "pregnant Sprague-Dawley rats", "assay": "Dose-response analyses (EC5) versus maternal serum HFPO-DA concentration", "format": "in vivo", "method": "Dose–response analyses for the in vitro transactivation assay data and the most sensitive in vivo end points and were conducted using four-parameter logistic regression in GraphPad Prism (constraint to bottom=0% , top=100% ). In vitro luminescence data was normalized to background (vehicle control), log10 transformed, and converted to percentage maximum response based on saturating levels of reference agonist. In vivo data were modeled as a function of log10 -transformed internal dose (i.e., dam serum HFPO-DA concentration from GD18), and response data was normalized to control and presented as a percentage. We estimated effect concentrations equivalent to a 5% deviation from control ( EC5 ). Reduction in maternal serum T3 concentration was modeled by ascribing a concentration of one-half of the detection limit (i.e., 0.1 ng/mL; detection limit of 0.2 ng/mL ) for the dose groups that were below the detection limit."}, "[2]": {"tested_on": "PPAR signaling pathway genes, fetal liver", "assay": "Fetal liver (GD18) PPAR gene array, fold induction versus control; maternal oral dosing GD14-18; rows per gene in dose order 1, 3, 10, 30, 62.5, 125, 250, 500 mg/kg/d", "format": "in vivo, Sprague-Dawley rats", "method": "A total of three blocks of 15 dams per block were dosed once daily from GD14–18 with either water vehicle (control) or HFPO-DA to evaluate fetal and maternal effects (Figure 1A). The first block of dams was dosed with control, 62.5, 125, 250, or 500mg/kg HFPO-DA ( n=3 dams for each). The second and third blocks of dams were dosed with control, 1, 3, 10, or 30mg/kg HFPO-DA ( n=3 per dose per block). Total sample sizes were n=9 for control, n=6 for 1, 3, 10, 30mg/kg , and n=3 for 62.5, 125, 250, and 500mg/kg HFPO-DA. In the first two blocks, spanning the entire dose range, we evaluated fetal testis testosterone production, fetal testis gene expression, fetal and maternal liver gene expression, fetal body weight, and maternal serum thyroid hormone and lipid concentrations. In the third block, encompassing the lower dose range utilized here, we collected fetal plasma for measuring HFPO-DA concentrations. Across all three blocks we evaluated maternal weight gain during dosing, reproductive output (number of fetuses and resorptions), maternal serum HFPO-DA concentration, and maternal liver weight at necropsy.\nFor the first two blocks, spanning the full dose range, late gestation (GD18) dams were euthanized by decapitation at ∼2h after the final oral dose [ ∼0830–1000 hours Eastern Standard Time (EST)]. Trunk blood was collected and serum isolated via centrifugation ( 10,000×g for 15 min at 4°C) in vacutainer tubes, transferred to 1.5-mL microcentrifuge tubes and stored at −80°C . Dam liver weight was recorded and a sample of liver tissue was collected into a polypropylene microcentrifuge tube containing 500μL TRIzol Reagent (Invitrogen) on ice. Fetuses were removed and two randomly selected fetuses per litter were weighed. Fetal testes were collected from all male pups with a single testis from the first three males used for determination of ex vivo testosterone production and the remaining testes were homogenized and preserved in TRIzol Reagent for gene expression analysis. The liver was collected from a single, randomly selected fetus per dam/litter for gene expression analysis and transferred to a polypropylene microcentrifuge tube containing 500μL TRIzol Reagent (Invitrogen) on ice. Both dam and fetal liver samples were individually homogenized using a Bullet Blender (Next Advance) with 1-mm zirconium oxide beads, transferred to clean tubes, and stored at −80°C prior to RNA extraction (see below). Ex vivo fetal testis testosterone production was measured as previously reported ([Wilson et al. 2004b]) except the radioimmunoassay (RIA) utilized here was supplied by ALPCO (Catalog No. 72-TESTO-CT2, ALPCO). Briefly, one testis was isolated from each of three separate male fetuses in each litter and incubated in a humidified atmosphere at 37°C for 3 h in 500μL of M-199 media (phenol red–free; Hazelton Biologics, Inc.) supplemented with 10% dextran-coated charcoal-stripped fetal bovine serum (Hyclone Laboratories) in 24-well plates under gentle agitation. After incubation, media were removed and stored in siliconized microcentrifuge tubes at −80°C until RIA analyses, which were performed according to manufacturer specifications.\nGene expression in fetal testes and fetal/maternal livers was assessed using reverse transcriptase real-time PCR of cDNA synthesized from RNA extracted from sample homogenates. RNA extraction was conducted according to TRIzol Reagent manufacturer specifications using chloroform and isopropanol. Following extraction, RNA was purified using the RNeasy Mini Kit (Catalog No. 74104; Qiagen). RNA concentration and purity (260:280 ratio ≥1.8 ) were determined with a NanoDrop 2000 spectrophotometer (Thermo Scientific). For the fetal testes, a 96-well gene array plate was previously custom designed to contain 89 target genes and 3 housekeeping genes, an intra-assay control, a genomic DNA control, a reverse transcriptase control, and a positive PCR control [see Table S1; SABioscience; ([Hannas et al. 2012])]. […]"}}, "note": "Several values for one entry are separate records, joined by “and”; a condition that tells them apart may be missing. Equal values may be shown once.", "data": [{"compound": "O=C(O)C(F)(OC(F)(F)C(F)(F)C(F)(F)F)C(F)(F)F", "note": "(stereo not drawn) [HFPO-DA, Hexafluoropropylene oxide dimer acid]", "values": [{"measurement": "EC5, maternal serum T3", "setting": "[1]; 5% deviation from control, maternal serum HFPO-DA", "result": 3.8, "unit": "µg/mL"}, {"measurement": "estimated maternal oral dose at T3 EC5", "setting": "[1]; linear equation from Figure 5", "result": 8.2, "unit": "mg/kg"}, {"measurement": "EC5, maternal liver Ehhadh expression", "setting": "[1]; maternal serum HFPO-DA", "result": 14.1, "unit": "µg/mL"}, {"measurement": "EC5, maternal liver weight", "setting": "[1]; maternal serum HFPO-DA", "result": 17.6, "unit": "µg/mL"}, {"measurement": "EC5, maternal serum T4", "setting": "[1]; maternal serum HFPO-DA", "result": 17.8, "unit": "µg/mL"}, {"measurement": "Acox3", "setting": "[2]; dose order", "result": "1.1 fold and 1.3 fold and 1.2 fold and 1.0 fold"}, {"measurement": "Acsl3", "setting": "[2]; dose order", "result": "1.0 fold and 1.1 fold and 1.2 fold and 1.3 fold and 1.4 fold and 1.5 fold"}, {"measurement": "Acsl4", "setting": "[2]; dose order", "result": "1.0 fold and 1.2 fold and 1.5 fold and 1.6 fold and 1.7 fold"}, {"measurement": "Acsl5", "setting": "[2]; dose order", "result": "0.8 fold and 0.9 fold and 1.1 fold and 1.0 fold"}, {"measurement": "Apoa1", "setting": "[2]; dose order", "result": "1.1 fold and 1.2 fold and 0.9 fold and 1.0 fold and 1.5 fold"}, {"measurement": "Apoa5", "setting": "[2]; dose order", "result": "1.4 fold and 1.3 fold and 1.5 fold and 1.6 fold and 1.0 fold"}, {"measurement": "Apoc3", "setting": "[2]; dose order", "result": "1.0 fold and 1.1 fold and 1.3 fold and 0.9 fold and 1.2 fold and 1.4 fold"}, {"measurement": "Apoe", "setting": "[2]; dose order", "result": "1.1 fold and 0.9 fold and 1.0 fold and 1.2 fold"}, {"measurement": "Aqp7", "setting": "[2]; dose order", "result": "1.0 fold and 1.3 fold and 1.5 fold and 1.6 fold and 1.7 fold and 1.8 fold"}, {"measurement": "Cd36", "setting": "[2]; dose order", "result": "0.8 fold and 0.9 fold"}, {"measurement": "Clu", "setting": "[2]; dose order", "result": "1.1 fold and 1.4 fold and 1.3 fold and 1.2 fold"}, {"measurement": "Creb1", "setting": "[2]; dose order", "result": "1.0 fold and 1.1 fold and 0.9 fold and 0.8 fold"}, {"measurement": "Crebbp", "setting": "[2]; dose order", "result": "1.0 fold and 1.1 fold and 0.9 fold"}, {"measurement": "Cyp27a1", "setting": "[2]; dose order", "result": "1.1 fold and 1.0 fold and 0.9 fold"}, {"measurement": "Dgat1", "setting": "[2]; dose order", "result": "1.1 fold and 1.2 fold and 1.4 fold and 1.5 fold"}, {"measurement": "Eln", "setting": "[2]; dose order", "result": "1.6 fold and 1.0 fold and 1.3 fold and 1.1 fold and 1.5 fold and 1.4 fold and 1.2 fold"}, {"measurement": "Ep300", "setting": "[2]; dose order", "result": "1.0 fold and 1.2 fold and 0.9 fold"}, {"measurement": "Fabp2", "setting": "[2]; dose order", "result": "0.9 fold and 1.0 fold and 1.1 fold and 0.7 fold"}, {"measurement": "Fabp3", "setting": "[2]; dose order", "result": "1.0 fold and 1.2 fold and 1.1 fold and 0.8 fold"}, {"measurement": "Fabp4", "setting": "[2]; dose order", "result": "1.4 fold and 1.5 fold and 1.2 fold and 0.9 fold and 1.0 fold"}, {"measurement": "Fabp5", "setting": "[2]; dose order", "result": "1.1 fold and 1.0 fold and 1.3 fold and 1.4 fold and 1.5 fold and 1.8 fold"}, {"measurement": "Fabp7", "setting": "[2]; dose order", "result": "1.0 fold and 1.3 fold and 1.4 fold and 1.8 fold and 1.9 fold"}, {"measurement": "Fads2", "setting": "[2]; dose order", "result": "1.1 fold and 1.2 fold and 1.6 fold and 1.8 fold and 2.0 fold and 2.2 fold and 2.1 fold"}, {"measurement": "Fgr", "setting": "[2]; dose order", "result": "0.9 fold and 1.3 fold and 1.0 fold and 1.1 fold and 0.8 fold"}, {"measurement": "Gk", "setting": "[2]; dose order", "result": "1.4 fold and 1.9 fold and 1.7 fold and 2.0 fold and 1.0 fold and 1.2 fold"}, {"measurement": "Hif1a", "setting": "[2]; dose order", "result": "1.0 fold and 1.1 fold and 1.2 fold"}, {"measurement": "Hspd1", "setting": "[2]; dose order", "result": "1.1 fold and 1.0 fold and 1.2 fold and 1.3 fold"}, {"measurement": "Ilk", "setting": "[2]; dose order", "result": "1.0 fold and 1.2 fold and 1.1 fold"}, {"measurement": "Klf10", "setting": "[2]; dose order", "result": "1.0 fold and 1.1 fold and 1.5 fold and 1.7 fold and 1.6 fold and 1.4 fold"}, {"measurement": "Lpin1", "setting": "[2]; dose order", "result": "1.0 fold and 1.2 fold and 0.8 fold and 0.9 fold and 1.3 fold"}, {"measurement": "Lpl", "setting": "[2]; dose order", "result": "1.0 fold and 1.1 fold and 1.2 fold and 1.4 fold and 1.3 fold and 1.5 fold"}, {"measurement": "Med1", "setting": "[2]; dose order", "result": "1.0 fold and 1.1 fold and 0.9 fold"}, {"measurement": "Mmp9", "setting": "[2]; dose order", "result": "1.2 fold and 1.5 fold and 1.0 fold and 1.1 fold and 0.9 fold"}, {"measurement": "Ncoa3", "setting": "[2]; dose order", "result": "1.0 fold and 1.3 fold and 0.9 fold"}, {"measurement": "Ncoa6", "setting": "[2]; dose order", "result": "1.0 fold and 1.1 fold and 0.9 fold"}, {"measurement": "Nr1h3", "setting": "[2]; dose order", "result": "1.1 fold and 1.2 fold and 1.0 fold"}, {"measurement": "Pck2", "setting": "[2]; dose order", "result": "0.9 fold and 1.1 fold and 1.0 fold"}, {"measurement": "Pdpk1", "setting": "[2]; dose order", "result": "0.9 fold and 1.1 fold and 0.8 fold and 1.0 fold"}, {"measurement": "Pltp", "setting": "[2]; dose order", "result": "1.5 fold and 1.0 fold and 1.4 fold and 1.1 fold"}, {"measurement": "Ppara", "setting": "[2]; dose order", "result": "1.1 fold and 1.2 fold and 0.9 fold and 1.4 fold and 1.3 fold"}, {"measurement": "Ppard", "setting": "[2]; dose order", "result": "0.9 fold and 1.4 fold and 1.1 fold and 1.0 fold and 1.2 fold"}, {"measurement": "Ppargc1a", "setting": "[2]; dose order", "result": "0.9 fold and 1.0 fold and 0.7 fold and 0.6 fold and 0.5 fold"}, {"measurement": "Ppargc1b", "setting": "[2]; dose order", "result": "1.1 fold and 1.3 fold and 1.2 fold and 0.9 fold and 1.0 fold"}, {"measurement": "Pprc1", "setting": "[2]; dose order", "result": "1.0 fold and 1.1 fold and 0.9 fold and 1.2 fold"}, {"measurement": "Pten", "setting": "[2]; dose order", "result": "0.9 fold and 1.0 fold and 1.1 fold and 0.8 fold"}, {"measurement": "Rxra", "setting": "[2]; dose order", "result": "1.0 fold and 1.2 fold and 1.1 fold"}, {"measurement": "Rxrb", "setting": "[2]; dose order", "result": "1.0 fold and 1.2 fold and 1.1 fold and 0.9 fold"}, {"measurement": "Sirt1", "setting": "[2]; dose order", "result": "0.9 fold and 1.0 fold and 0.8 fold"}, {"measurement": "Slc27a1", "setting": "[2]; dose order", "result": "1.0 fold and 1.1 fold and 0.9 fold"}, {"measurement": "Slc27a4", "setting": "[2]; dose order", "result": "1.0 fold and 1.2 fold and 0.9 fold"}, {"measurement": "Slc27a5", "setting": "[2]; dose order", "result": "1.2 fold and 1.1 fold and 0.9 fold and 1.0 fold"}, {"measurement": "Slc27a6", "setting": "[2]; dose order", "result": "1.4 fold and 1.1 fold and 1.0 fold and 1.3 fold and 1.7 fold and 1.5 fold"}, {"measurement": "Smarcd3", "setting": "[2]; dose order", "result": "1.2 fold and 1.0 fold and 0.9 fold and 1.1 fold"}, {"measurement": "Sorbs1", "setting": "[2]; dose order", "result": "1.2 fold and 1.5 fold and 1.3 fold and 0.9 fold and 1.1 fold and 1.0 fold"}, {"measurement": "Tgs1", "setting": "[2]; dose order", "result": "0.9 fold and 1.0 fold and 0.8 fold"}, {"measurement": "Txnip", "setting": "[2]; dose order", "result": "0.9 fold and 1.1 fold and 1.2 fold"}, {"measurement": "number of significantly up-regulated PPAR pathway genes", "setting": "[2]; fetal liver, ANOVA p<0.0001", "result": 28, "unit": "genes"}, {"measurement": "dose with up-regulated PPAR pathway gene expression in maternal and fetal livers", "setting": "[2]; oral GD14-18", "result": "≥ 1", "unit": "mg/kg"}]}]}
